“And” between values parts separate entries of the source, which are not always exact repeats. Identical values can stand only once. Toxic doses and inconclusive results are not listed. Rule for the calls: active = survival T/C of 150% or more; inactive = T/C below 125% in these data.
System: P388 leukemia ip, CD2F1 mice, survival T/C
Assay: NCI In Vivo Anticancer Drug Screen. Data for tumor model P388 Leukemia (intraperitoneal) in CD2F1 (CDF1) mice
Details: endpoint: median survival time, higher = longer survival
Outline: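 Mice carrying the transplanted tumor received test compound or vehicle. Survival was recorded in each group, and the value is the treated-group measurement divided by that of the vehicle-treated control group.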

[1] = dose: 50.0 mg/kg/injection, schedule: Q01DX009 (ip), vehicle: saline
[2] = dose: 50.0 mg/kg/injection, schedule: Q01DX009 (ip), vehicle: saline with Tween-80
[3] = dose: 100.0 mg/kg/injection, schedule: Q01DX009 (ip), vehicle: saline with Tween-80
[4] = dose: 200.0 mg/kg/injection, schedule: Q01DX009 (ip), vehicle: saline with Tween-80
[5] = dose: 50.0 mg/kg/injection, schedule: Q01DX005 (ip), vehicle: Klucel (hydroxypropylcellulose) (HPC)
[6] = dose: 100.0 mg/kg/injection, schedule: Q01DX005 (ip), vehicle: Klucel (hydroxypropylcellulose) (HPC)
[7] = dose: 200.0 mg/kg/injection, schedule: Q01DX005 (ip), vehicle: Klucel (hydroxypropylcellulose) (HPC)
[8] = dose: 60.0 mg/kg/injection, schedule: Q01DX005 (ip), vehicle: Klucel (hydroxypropylcellulose) (HPC)
[9] = dose: 120.0 mg/kg/injection, schedule: Q01DX005 (ip), vehicle: Klucel (hydroxypropylcellulose) (HPC)
[10] = dose: 240.0 mg/kg/injection, schedule: Q01DX005 (ip), vehicle: Klucel (hydroxypropylcellulose) (HPC)
[11] = dose: 25.0 mg/kg/injection, schedule: Q01DX005 (ip), vehicle: saline with Tween-80
[12] = dose: 50.0 mg/kg/injection, schedule: Q01DX005 (ip), vehicle: saline with Tween-80
[13] = dose: 100.0 mg/kg/injection, schedule: Q01DX005 (ip), vehicle: saline with Tween-80
[14] = dose: 100.0 mg/kg/injection, schedule: Q04DX003 (ip), vehicle: saline with Tween-80
[15] = dose: 200.0 mg/kg/injection, schedule: Q04DX003 (ip), vehicle: saline with Tween-80
[16] = dose: 12.5 mg/kg/injection, schedule: Q01DX009 (ip), vehicle: Klucel (hydroxypropylcellulose) (HPC)
[17] = dose: 100.0 mg/kg/injection, schedule: Q01DX009 (ip), vehicle: Klucel (hydroxypropylcellulose) (HPC)
[18] = dose: 200.0 mg/kg/injection, schedule: Q01DX005 (ip), vehicle: saline with Tween-80

Measured: T/C

CC(C)NCCO
inactive: [1] 100 % of control | dose: 50.0 mg/kg/injection, schedule: Q04DX003 (ip), vehicle: saline 100 % of control | dose: 100.0 mg/kg/injection, schedule: Q04DX003 (ip), vehicle: saline 109 % of control | dose: 200.0 mg/kg/injection, schedule: Q04DX003 (ip), vehicle: saline 109 % of control

COc1ccc(N2C(=O)CC(n3ccccc3=O)C2=O)cc1 (centres undefined)
inactive: dose: 100.0 mg/kg/injection, schedule: Q04DX002 (ip), vehicle: saline with Tween-80 100 % of control | dose: 200.0 mg/kg/injection, schedule: Q04DX002 (ip), vehicle: saline with Tween-80 99 % of control | dose: 400.0 mg/kg/injection, schedule: Q04DX002 (ip), vehicle: saline with Tween-80 101 % of control

Cc1ccc(CSCc2c(CSCc3ccc(C)cc3)c(CSCc3ccc(C)cc3)c(CSCc3ccc(C)cc3)c(CSCc3ccc(C)cc3)c2CSCc2ccc(C)cc2)cc1
inactive: [2] 92 % of control | [3] 97 % of control | [4] 86 % of control

CN1C(=O)N(C)C2=NC(=O)N(C)C2(C(Cl)(Cl)Cl)C1=O (centres undefined)
inactive: dose: 7.5 mg/kg/injection, schedule: Q01DX005 (ip), vehicle: saline with Tween-80 103 % of control | dose: 15.0 mg/kg/injection, schedule: Q01DX005 (ip), vehicle: saline with Tween-80 102 % of control | dose: 30.0 mg/kg/injection, schedule: Q01DX005 (ip), vehicle: saline with Tween-80 112 % of control | dose: 60.0 mg/kg/injection, schedule: Q01DX005 (ip), vehicle: saline with Tween-80 112 % of control

O=c1c2sc3ccccc3c2ncn1C1CCCCC1
inactive: [5] 98 % of control | [6] 100 % of control | [7] 93 % of control

O=C(O)/C=C/c1c2ccc(=O)cc-2oc2cc(O)ccc12
inactive: [8] 103 % of control | [9] 103 % of control | [10] 91 % of control

Nc1nc(C(Br)Br)c([N+](=O)[O-])c(=O)[nH]1
inactive: dose: 12.0 mg/kg/injection, schedule: Q01DX005 (ip), vehicle: saline with Tween-80 97 % of control | dose: 12.5 mg/kg/injection, schedule: Q01DX005 (ip), vehicle: saline with Tween-80 100 % of control | [11] 104 % of control and 94 % of control | [12] 112 % of control and 97 % of control

CCN(CC)CCOc1ccc(Cl)c(C)c1
inactive: [12] 101 % of control | [13] 103 % of control

C=C(C)C(=O)Nc1ccc(NC(C)C)cc1
inactive: dose: 12.5 mg/kg/injection, schedule: Q01DX009 (ip), vehicle: saline with Tween-80 115 % of control | dose: 12.5 mg/kg/injection, schedule: Q01DX009 (ip), vehicle: saline 105 % of control | dose: 25.0 mg/kg/injection, schedule: Q01DX009 (ip), vehicle: saline with Tween-80 108 % of control | dose: 25.0 mg/kg/injection, schedule: Q01DX009 (ip), vehicle: saline 97 % of control | [2] 93 % of control and 96 % of control | [1] 90 % of control | dose: 100.0 mg/kg/injection, schedule: Q01DX009 (ip), vehicle: saline 102 % of control

Cc1nc(Cl)c(C#N)nc1C
inactive: [2] 100 % of control | dose: 50.0 mg/kg/injection, schedule: Q04DX003 (ip), vehicle: saline with Tween-80 110 % of control | [3] 100 % of control | [14] 100 % of control | [4] 100 % of control | [15] 100 % of control

Cc1ccc(S(=O)(=O)C23N=NC(C)(C)C2C2CCC3C2)cc1 (centres undefined)
inactive: [8] 102 % of control | [9] 104 % of control | [10] 102 % of control

NC(=O)C(=O)NNc1cccc(Cl)n1
inactive: dose: 50.0 mg/kg/injection, schedule: Q01DX001 (ip), vehicle: Klucel (hydroxypropylcellulose) (HPC) 96 % of control | dose: 100.0 mg/kg/injection, schedule: Q01DX001 (ip), vehicle: Klucel (hydroxypropylcellulose) (HPC) 98 % of control | dose: 200.0 mg/kg/injection, schedule: Q01DX001 (ip), vehicle: Klucel (hydroxypropylcellulose) (HPC) 103 % of control

NCCSc1cc(O)c2c(c1N)C(=O)c1ccccc1C2=O
inactive: [16] 106 % of control | dose: 25.0 mg/kg/injection, schedule: Q01DX009 (ip), vehicle: Klucel (hydroxypropylcellulose) (HPC) 104 % of control | dose: 50.0 mg/kg/injection, schedule: Q01DX009 (ip), vehicle: Klucel (hydroxypropylcellulose) (HPC) 106 % of control | [17] 105 % of control

C/C=C1\C[C@H]2C(=O)Nc3cc(O)c(OC)cc3C(=O)N2C1
inactive: [11] 96 % of control | [12] 105 % of control | [13] 106 % of control

Cc1cc(N(CCOS(C)(=O)=O)CCOS(C)(=O)=O)ccc1C=Nc1ccc(-c2csc(-c3ccccc3)n2)c(Cl)c1
inactive: dose: 6.25 mg/kg/injection, schedule: Q01DX009 (ip), vehicle: Klucel (hydroxypropylcellulose) (HPC) 110 % of control | [16] 122 % of control | [17] 98 % of control and 87 % of control

COC(=O)c1ccccc1N=NNc1ccccc1C(N)=O
inactive: [14] 90 % of control | [15] 97 % of control | dose: 400.0 mg/kg/injection, schedule: Q04DX003 (ip), vehicle: saline with Tween-80 99 % of control

CCCCN(CCCC)CC(O)c1ccc(Br)c2ccccc12 (centres undefined)
inactive: [12] 105 % of control | [13] 102 % of control | [18] 104 % of control

COc1ccc(C2OC3=C(Nc4ccc([N+](=O)[O-])cc4N3)C2=O)cc1OC (centres undefined)
inactive: [8] 89 % of control | [9] 93 % of control | [10] 89 % of control

NC(=O)NC1CC2CCC1C2 (centres undefined)
inactive: dose: 50.0 mg/kg/injection, schedule: Q01DX005 (ip), vehicle: saline 101 % of control | dose: 100.0 mg/kg/injection, schedule: Q01DX005 (ip), vehicle: saline 101 % of control | dose: 200.0 mg/kg/injection, schedule: Q01DX005 (ip), vehicle: saline 105 % of control

O=C(c1ccco1)N1CCN(C(=O)c2ccco2)CC1
inactive: [12] 104 % of control | [13] 96 % of control | [18] 100 % of control

O=C1CC(O)(c2ccc(-c3ccccc3)cc2)CS1 (centres undefined)
inactive: dose: 100.0 mg/kg/injection, schedule: Q04DX003 (ip), vehicle: Klucel (hydroxypropylcellulose) (HPC) 101 % of control | dose: 200.0 mg/kg/injection, schedule: Q04DX003 (ip), vehicle: Klucel (hydroxypropylcellulose) (HPC) 99 % of control | dose: 400.0 mg/kg/injection, schedule: Q04DX003 (ip), vehicle: Klucel (hydroxypropylcellulose) (HPC) 92 % of control

CC1=CC(=O)C2C(CC1)C2(C)C (centres undefined)
inactive: dose: 100.0 mg/kg/injection, schedule: Q04DX003 (ip), vehicle: saline + Tween-80 + alcohol 102 % of control | dose: 200.0 mg/kg/injection, schedule: Q04DX003 (ip), vehicle: saline + Tween-80 + alcohol 95 % of control | dose: 400.0 mg/kg/injection, schedule: Q04DX003 (ip), vehicle: saline + Tween-80 + alcohol 91 % of control

Nc1ccc(Nc2nc(Cl)nc(Nc3ccc(N)cc3)n2)cc1
inactive: [5] 98 % of control | [6] 90 % of control | [7] 90 % of control

Source: PubChem BioAssay AID330 (DTP/NCI, 2004)
